Test results as given in patent publication US11504371B2, “Quinazolines compound, preparation method therefor and application thereof” (Beijing Normal University, priority 2017, dated 2022).
Values joined by “and” are separate entries in the source; they are usually repeats but may differ in a detail not shown here. Identical values can stand only once. “Also recorded” adds a separate entry of the source. Like-named read-outs stand apart in the source and are kept apart here. Marks after values point to notes of the source that are not given here.

What was measured:
[1] = test system: human hepatoma cell line (HepG2); assay: MTT assay, tumor cell proliferation inhibition, HepG2; format: cell-based; settings: 72 h, read-out: Tumor inhibition rate (IC50)
Experimental: (§1) Cell lines to be tested: human hepatoma cell line (HepG2), human lung cancer cell line (A549), human prostate cancer cell line (DU145), human breast cancer cell line (MCF-7), human neuroblastoma cell line (SH-SY5Y), human gastric mucosal cell line (Ges-1) and human embryonic lung fibroblast cell line (CCC-HPF-1) (the cells to be tested were purchased from the Cancer Hospital of Chinese Academy of Medical Sciences).
(§2) The cells in logarithmic growth phase were treated to prepare a single cell suspension, with the cell density adjusted, which was seeded in a 96-well cell culture plate. About 2×10^3 cells were contained in 100 μL per well, and cultured in a cell incubator at 37° C., 5% CO2, and saturated humidity for 24 h. The used medium was aspirated and abandoned, and then 100 μL of the target compound in different concentrations (0.1 μM-100 μM) were added for drug treatment. Five duplicate wells were prepared for each concentration. The background blank well, negative control well and positive control well were also prepared. All the wells were placed in a cell culture incubator at 37° C., 5% CO2, saturated humidity for another 72 h. Then, each well was added with 10 μL of MTT solution (5 mg/mL) and incubated for another 4 h. After that, each well was added with 100 μL of 10% SDS-0.1% NH4Cl (10% SDS purchased from Beijing Mengyimei Biotechnology Co., Ltd.) solution, and incubated at 37° C. for 10 h in the dark. Then, the absorbance OD was measured at 570 nm using a microplate reader at a reference wavelength of 650 nm. Cell proliferation inhibition was calculated according to the following formula: % inhibition=(ODcontrol−ODtreat)(ODcontrol−ODblank)×100. […] Each group was performed at least three times in parallel.

[2] = test system: human neuroblastoma cell line (SH-SY5Y); assay: MTT assay, tumor cell proliferation inhibition, SH-SY5Y; format: cell-based; settings: SH-SY5Y, 72 h, read-out: Tumor inhibition rate (IC50)
Experimental: as §1, §2

[3] = test system: human lung cancer cell line (A549); assay: MTT assay, tumor cell proliferation inhibition, A549; format: cell-based; settings: for IC50: A549, MTT, 72 h, read-out: Tumor inhibition rate (IC50)
Experimental: as §1, §2

[4] = test system: human breast cancer cell line (MCF-7); assay: MTT assay, tumor cell proliferation inhibition, MCF-7; format: cell-based; settings: MCF-7, MTT, 72 h, read-out: Tumor inhibition rate (IC50)
Experimental: as §1, §2

[5] = test system: human prostate cancer cell line (DU145); assay: MTT assay, tumor cell proliferation inhibition, DU145; format: cell-based; settings: DU145, MTT, 72 h, read-out: Tumor inhibition rate (IC50)
Experimental: as §1, §2

[6] = test system: tumor cell strains HepG2, A549, MCF-7, DU145 and SH-SY5Y; assay: MTT assay, summary over the five tumor cell lines; format: cell-based, human; settings: HepG2, A549, MCF-7, DU145, SH-SY5Y
Experimental: as §1
The cells in logarithmic growth phase were treated to prepare a single cell suspension, with the cell density adjusted, which was seeded in a 96-well cell culture plate. About 2×10^3 cells were contained in 100 μL per well, and cultured in a cell incubator at 37° C., 5% CO2, and saturated humidity for 24 h. The used medium was aspirated and abandoned, and then 100 μL of the target compound in different concentrations (0.1 μM-100 μM) were added for drug treatment. Five duplicate wells were prepared for each concentration. The background blank well, negative control well and positive control well were also prepared. All the wells were placed in a cell culture incubator at 37° C., 5% CO2, saturated humidity for another 72 h. Then, each well was added with 10 μL of MTT solution (5 mg/mL) and incubated for another 4 h. After that, each well was added with 100 μL of 10% SDS-0.1% NH4Cl (10% SDS purchased from Beijing Mengyimei Biotechnology Co., Ltd.) solution, and incubated at 37° C. for 10 h in the dark. Then, the absorbance OD was measured at 570 nm using a microplate reader at a reference wavelength of 650 nm. Cell proliferation inhibition was calculated according to the following formula: % inhibition=(ODcontrol−ODtreat)(ODcontrol−ODblank)×100. IC50 value, i.e., 50% proliferation inhibition concentration, was calculated by SPSS 16.0 software. Each group was performed at least three times in parallel.
The inhibitory activities of 35 target compounds against tumor cell strains HepG2, A549, MCF-7, DU145 and SH-SY5Y were tested by MTT assay (Table 1). Some compounds with optimal antitumor activity were selected.

A549 cells = assay: Cell cycle experiment (PI staining, flow cytometer); format: cell-based, human; settings: for Cell proportion, G0/G1 / Cell proportion, G2/M / Cell proportion, S: 48 h
Experimental: Experiment procedure: A549 cells in logarithmic growth phase (purchased from the Cancer Hospital of Chinese Academy of Medical Sciences) were seeded into 6-well cell culture plates, adjusted to 5×10^5 cells per well, and cultured in an incubator at 37° C., 5% CO2, and saturated humidity for 24 h. The used medium was discarded. The cells were treated with the target compounds in different concentrations for 48 h, and grouped to an administration group and a control group (non-administered). The cells were digested with 0.25% trypsin to form a single cell suspension, centrifuged at 1500 r/min for 5 min. The supernatant was discarded, and the cells were collected. The cells were washed twice with precooled PBS buffer, centrifuged at 1500 r/min for 5 min, added to 5 mL of precooled 70% ethanol, and placed at 4° C. for at least 24 h. After centrifugation, the supernatant was discarded, and the cells were washed twice with PBS and collected by centrifugation. The cells were suspended in 400 μL PBS, added with 30 μL of RNaseA (purchased from Corning Inc., USA) at the concentrations from 1 mg/mL to 50 μg/mL, and incubated at 37° C. for 30 min. The centrifuge tube was then inserted into an ice bath to stop digestion. After the tube was cooled, 50 μL of PI staining solution (500 μg/mL) (purchased from Corning Inc., USA) was added to a final concentration of 50 μg/mL. The tube was immersed in an ice bath to perform straining in the dark for 30 min-40 min, filtered through a 300 mesh nylon mesh, and tested by flow cytometer (FACS Vantage SE: BD, USA).

cell membrane = assay: Cell membrane permeability test (Hoechst 33342 fluorescence); format: cell-based; settings: Hoechst 33342 fluorescence observation
Source text: One of the anilino polyethylene glycol ether cycloquinazoline substituted with a substituted arylmethyl heteroatomic group of formula (I), N-(4-((4-nitrophenyl)methoxy)phenyl)-6,7-(benzo-9-crown-3)-4-quinazolinamine, is studied by cell membrane permeability test. […] As the concentration of the target compound increases, the permeability is improved and the cells undergo apoptosis.

cells A549 = assay: Intracellular reactive oxygen species (fluorescence spectrometer); format: cell-based, human; settings: A549 after treatment
Source text: A part of the compound of anilino polyethylene glycol ether cycloquinazoline substituted with a substituted arylmethyl heteroatomic group represented by formula (I) are studied by detecting cell mitochondrial membrane potential and intracellular reactive oxygen species.

A549 cancer cells = assay: Nude mice bearing A549 cancer cells; format: in vivo
Experimental: In the present invention, the antitumor activity was evaluated by intraperitoneal injection to nude mice bearing different tumors, for compounds 3 (N-(4-((4-nitrophenyl)methoxy)phenyl)-6,7-(benzo-9-crown-3)-4-quinazolinamine) and 23 (compounds No. are shown in Table 1) (N-(3-((4-trifluoromethylphenyl)methoxy)phenyl)-6,7-(benzo-12-crown-4)-4-quinazolinamine) of formula (I).
Firstly, a tumor-bearing nude mouse model was established. 0.2-1 mL of cell suspension was inoculated subcutaneously into the left lower limb of nude mice, and the drug was administered when the tumor volume reached about 100 mm^3. Then, grouping and administration were performed; the nude mice (5 mice in each group) were randomly divided into several groups, such as ultra-pure water control group (blank), positive drug control group, and different dosage treatment groups. The nude mice in each group were administered continuously for 40 days. The nude mice were weighted every other day during the administration. Tumor volumes were measured and calculated. Then tumor growth curve, tumor inhibition curve (see FIGS. 1 and 3) and weight change curve (see FIGS. 2 and 4) were drawn. […]. Among those, docetaxel suffers from high cumulative neurotoxic toxicity and drug resistance although it has the best effect. Comparing to docetaxel, compound 23 has a much lower toxicity and drug resistance, and thus has a great development prospect. […]

HepG2 cancer cells = assay: Nude mice bearing HepG2 cancer cells
Experimental: Firstly, a tumor-bearing nude mouse model was established. […] Then, grouping and administration were performed; the nude mice (5 mice in each group) were randomly divided into several groups, such as ultra-pure water control group (blank), positive drug control group, and different dosage treatment groups. The nude mice in each group were administered continuously for 40 days. The nude mice were weighted every other day during the administration. Tumor volumes were measured and calculated.

| IC50 ([1]; Homo sapiens) | IC50 ([2]; Homo sapiens) | IC50 ([3]; Homo sapiens) | IC50 ([4]; Homo sapiens, MCF7) | IC50 ([5]; Homo sapiens, DU-145) | melting point | IC50 [1] | IC50 [2] | IC50 [3] | IC50 [4] | IC50 [5] | SMILES | inhibitory effect on proliferation of the five tumor cells (in words) [6] | further results |
| --- | --- | --- | --- | --- | --- | --- | --- | --- | --- | --- | --- | --- | --- |
| 9.82 µM | 8.42 µM | 19.8 µM | 6.41 µM | 13.8 µM | 136 to 137 °C | – | – | – | – | – | O=[N+]([O-])c1ccc(COc2cccc(Nc3ncnc4cc5c(cc34)OCCOCCOCCOCCO5)c2)cc1 [Compound 31, N-(3-((4-nitrophenyl)methoxy)phenyl)-6,7-(benzo-15-crown-5)-4-quinazolinamine] | good inhibitory effect on proliferation of at least three of the five tumor cells | – |
| – | – | – | – | – | – | 11.9 µM | 5.25 µM | 29.5 µM | 12 µM | 8.8 µM | c1ccc(COc2ccc(Nc3ncnc4cc5c(cc34)OCCOCCOCCOCCO5)cc2)cc1 [Compound 29, N-(4-((phenyl)methoxy)phenyl)-6,7-(benzo-15-crown-5)-4-quinazolinamine] | good inhibitory effect on proliferation of at least three of the five tumor cells | – |

The next lines start with the compound.

| SMILES | IC50 ([1]; Homo sapiens) | IC50 ([2]; Homo sapiens) | IC50 ([3]; Homo sapiens) | IC50 ([4]; Homo sapiens, MCF7) | IC50 ([5]; Homo sapiens, DU-145) | melting point | IC50 [1] | IC50 [2] | IC50 [3] | IC50 [4] | IC50 [5] | inhibitory effect on proliferation of the five tumor cells (in words) [6] | further results |
| --- | --- | --- | --- | --- | --- | --- | --- | --- | --- | --- | --- | --- | --- |
| O=[N+]([O-])c1ccc(COc2ccc(Nc3ncnc4cc5c(cc34)OCCOCCO5)cc2)cc1 [Compound 3, N-(4-((4-nitrophenyl)methoxy)phenyl)-6,7-(benzo-9-crown-3)-4-quinazolinamine] | > 100 µM | 55.2 µM | 6.62 µM | 39.7 µM | > 100 µM | – | – | – | – | – | – | – | inhibitory activity on A549 (in words) ([3]; MTT, summary of Table 1): strong specific inhibitory activity; cell cycle block (in words) (A549 cells; A549, 0-40 μM): can block A549 in G0/G1 phase; Cell proportion, G0/G1 (A549 cells; A549, 5 μM): 84.51 ± 0.32 ^a %; Cell proportion, G2/M (A549 cells; A549, 5 μM): 3.06 ± 0.12 ^ %; Cell proportion, S (A549 cells; A549, 5 μM): 12.42 ± 0.10%; Cell proportion, G0/G1 (A549 cells; A549, 10 μM): 85.58 ± 0.44 ^a %; Cell proportion, G2/M (A549 cells; A549, 10 μM): 3.05 ± 0.19 ^ %; Cell proportion, S (A549 cells; A549, 10 μM): 11.39 ± 0.64%; Cell proportion, G0/G1 (A549 cells; A549, 20 μM): 87.23 ± 0.31 ^a %; Cell proportion, G2/M (A549 cells; A549, 20 μM): 1.41 ± 0.05 ^a %; Cell proportion, S (A549 cells; A549, 20 μM): 11.68 ± 0.26%; Cell proportion, G0/G1 (A549 cells; A549, 40 μM): 90.08% and 90.08 ± 0.62 ^a %; Cell proportion, G2/M (A549 cells; A549, 40 μM): 2.04 ± 0.14 ^a %; Cell proportion, S (A549 cells; A549, 40 μM): 7.90 ± 0.50 ^a %; effect on cell membrane permeability (cell membrane): can increase the permeability of the cell membrane; intracellular reactive oxygen species (ROS) (cells A549): increased intracellular reactive oxygen species (ROS) and apoptosis; tumor inhibition (A549 cancer cells; 60 mg/Kg, FIG. 1): significant inhibited; body weight (A549 cancer cells; 60 mg/Kg, FIG. 2): not decreased significantly; tumor inhibitory effect (tumor volume, FIG. 1) (A549 cancer cells; nude mice bearing A549, intraperitoneal injection): remarkable tumor inhibitory effect; also recorded: high inhibitory effect; inhibitory activity against A549 compared with gefitinib (A549 cancer cells; same dose 45 mg/Kg, FIG. 1): significantly higher |
| FC(F)(F)c1ccc(COc2cccc(Nc3ncnc4cc5c(cc34)OCCOCCOCCOCCO5)c2)cc1 [Compound 34, N-(3-((4-trifluoromethylphenyl)methoxy)phenyl)-6,7-(benzo-15-crown-5)-4-quinazolinamine] | – | – | – | – | – | – | 5.7 µM | 8.56 µM | 8.52 µM | 8.48 µM | 26.9 µM | good inhibitory effect on proliferation of at least three of the five tumor cells | – |
| FC(F)(F)c1ccc(COc2ccc(Nc3ncnc4cc5c(cc34)OCCOCCOCCOCCO5)cc2)cc1 [Compound 35, N-(4-((4-trifluoromethylphenyl)methoxy)phenyl)-6,7-(benzo-15-crown-5)-4-quinazolinamine] | 3.34 µM | 2.14 µM | 8.56 µM | 10 µM | 8.8 µM | 197 to 198 °C | – | – | – | – | – | good inhibitory effect on proliferation of at least three of the five tumor cells; also recorded: high anticancer activity on all the five tumor cells | body weight of the mice (FIG. 6) (HepG2 cancer cells; 20 mg/Kg, single agent): significantly increased; weight loss of nude mice (FIG. 6) (HepG2 cancer cells; 40 mg/Kg, single agent): weight loss of nude mice is similar; tumor growth (tumor volume, FIG. 5) (HepG2 cancer cells; nude mice bearing HepG2, single agent): can slow down the tumor growth with increasing drug dose |
